# According to patent publication US20080234132A1, “Microcin B17 Analogs And Methods For Their Preparation And Use” (priority 2004, published 2008):
# Key:
# [1] = target: T1, Human topoisomerase IIα (Homo sapiens, UniProt P11388); test: Human Topoisomerase IIα-mediated relaxation assay; assay type: biochemical; set-up: purchased TopoGEN Inc. (Port Orange, Fla., USA); conditions: read-out: Topo IIα Human, R (relaxation reaction) IC50
# Procedure: (§1) Human Topoisomerase IIα-mediated relaxation assays and decatenation assays were performed as per the manufacturer's instructions in a total of 20 μL. Relaxation assays contained Topoisomerase IIα (4.3 nM), 50 mM Tris.HCl pH 8,120 mM KCl, 10 mM MgCl2, 0.5 mM DTT, 0.5 mM ATP, 4.6 nM of supercoiled pBR322 DNA, and inhibitor where appropriate. Decatenation assays substituted the supercoiled DNA with 200 ng catenated kinetoplast DNA.
# (§2) All in vitro reactions were incubated at 37° C. for 30 minutes. The DMSO concentration in each reaction was kept constant at 3.33%. Reactions were quenched with the addition of an equal volume of phenol/chloroform/isoamyl alcohol (25:24:1) and one tenth volume of loading buffer containing 40% sucrose, 100 mM Tris.HCl pH 7.5, 100 mM EDTA, 2 mg/mL bromophenol blue. The proteins were precipitated by vortexing, followed by centrifugation for 5 minutes at 16 000 g. The aqueous phase was loaded onto 1% agarose gels in Tris-acetate and were electrophoresed at 60 V for three hours in Tris-acetate buffer. The gels were stained in 1 μg/mL ethidium bromide. The gels were visualised using UV light and were documented and analysed using Syngene software.
# [2] = target: T1, Human topoisomerase IIα; test: Human topoisomerase IIα-mediated decatenation assay; assay type: biochemical; set-up: purchased TopoGEN Inc
# Procedure: as §1, §2
# [3] = target: E. coli Topoisomerase IV (Escherichia coli, UniProt P0AFI2+P20083); test: biochemical; set-up: purchased John Innes Enterprises (Norwich, UK); conditions: read-out: Topo IV, R (relaxation reaction) IC50
# Chain of E. coli Topoisomerase IV (P20083 whole entry): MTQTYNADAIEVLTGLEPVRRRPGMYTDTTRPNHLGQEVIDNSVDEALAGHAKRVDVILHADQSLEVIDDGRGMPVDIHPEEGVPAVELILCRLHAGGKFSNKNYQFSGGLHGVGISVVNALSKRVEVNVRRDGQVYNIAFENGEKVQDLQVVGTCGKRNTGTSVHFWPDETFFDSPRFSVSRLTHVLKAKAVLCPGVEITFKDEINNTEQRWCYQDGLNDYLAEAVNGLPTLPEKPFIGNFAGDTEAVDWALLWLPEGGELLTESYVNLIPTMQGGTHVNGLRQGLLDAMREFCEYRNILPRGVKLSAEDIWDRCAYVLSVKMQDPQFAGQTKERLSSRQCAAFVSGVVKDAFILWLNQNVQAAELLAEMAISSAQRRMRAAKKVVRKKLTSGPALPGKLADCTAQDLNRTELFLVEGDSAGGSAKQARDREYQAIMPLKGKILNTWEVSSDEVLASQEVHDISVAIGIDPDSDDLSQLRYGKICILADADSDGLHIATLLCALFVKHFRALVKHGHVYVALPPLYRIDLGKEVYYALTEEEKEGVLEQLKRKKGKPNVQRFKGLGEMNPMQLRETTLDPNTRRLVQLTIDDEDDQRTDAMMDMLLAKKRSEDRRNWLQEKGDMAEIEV
# Chain of E. coli Topoisomerase IV (P0AFI2 whole entry): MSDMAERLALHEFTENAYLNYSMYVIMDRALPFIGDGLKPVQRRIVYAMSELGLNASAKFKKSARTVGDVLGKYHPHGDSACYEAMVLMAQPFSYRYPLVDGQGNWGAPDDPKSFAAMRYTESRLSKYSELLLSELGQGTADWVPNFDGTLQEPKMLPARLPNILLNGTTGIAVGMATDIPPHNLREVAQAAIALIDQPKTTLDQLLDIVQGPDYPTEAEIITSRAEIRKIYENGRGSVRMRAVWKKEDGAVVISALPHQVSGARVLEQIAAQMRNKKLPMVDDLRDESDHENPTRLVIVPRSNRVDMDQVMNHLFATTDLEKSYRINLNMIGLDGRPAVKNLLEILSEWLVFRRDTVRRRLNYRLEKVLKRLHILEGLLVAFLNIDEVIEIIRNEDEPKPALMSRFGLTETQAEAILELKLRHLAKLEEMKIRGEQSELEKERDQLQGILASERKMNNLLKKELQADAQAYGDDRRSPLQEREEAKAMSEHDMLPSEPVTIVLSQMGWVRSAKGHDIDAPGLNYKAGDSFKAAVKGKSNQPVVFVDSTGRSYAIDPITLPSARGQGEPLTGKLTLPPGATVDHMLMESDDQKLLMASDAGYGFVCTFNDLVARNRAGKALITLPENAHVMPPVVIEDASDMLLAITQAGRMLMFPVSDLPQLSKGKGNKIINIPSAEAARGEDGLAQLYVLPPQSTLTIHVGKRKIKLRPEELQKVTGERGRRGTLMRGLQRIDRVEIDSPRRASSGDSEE
# Procedure: Topoisomerase IV-mediated relaxation assays and decatenation assays were performed as previously described (see Peng and Marians, 1993). […] Decatenation assays contained topoisomerase IV (4 nM), 40 mM Tris HCl pH 7.5 at 30° C., 6 mM MgCl2, 10 mM DTT, 1 mM spermidine.HCl, 100 mM potassium glutamate, 0.5 mM ATP, 0.5 mg/mL BSA, 200 ng of kinetoplast DNA, and inhibitor where appropriate.
# [4] = tested on: HeLa cells; test: cells; assay type: cell-based, human; conditions: Homo sapiens, HeLa; MTT, 24 hours; read-out: In vivo HeLa Cells (approximate IC50)
# Procedure: (§3) Human cell cultures were initiated from frozen cell stocks (the gift of Dr J. Gavrilovic, UEA). The HT-29 line is derived from a colorectal adenocarcinoma while HeLa cells are derived from a cervical epithelial adenocarcinoma (see FIG. 35). Both human cell lines form adherent cultures and were maintained at 37° C. in T25 culture vessels as 10 mL cultures in CO2 Independent Media containing 10% foetal bovine serum (EU approved), 4 mM L-glutamine, penicillin/streptomycin (Invitrogen). A subcultivation ratio of 1:3 and 1:6 were maintained for HT-29 and HeLa lines respectively. Media was renewed every three days.
# (§4) The assay to determine the effects of the heterocyclic compounds on mammalian cells is based on the cleavage of the yellow tetrazolium salt MTT to purple formazoan crystals by metabolically active cells (Roche). After incubation with MTT and solubilization, the resulting coloured solution is quantified using a scanning spectrophotometer. Each of the cell lines was trypsinised and resuspended in fresh media prior to transfer to sterile flat-bottomed microtitre plates (200 μL per well) and allowed to recover for 16 hours. Five thousand HT-29 or 7500 HeLa cells per 100 μL culture medium were incubated in the presence of the drugs in various concentrations (totalling 10 μL) for 24 hours. Cell viability was then determined by addition of MTT reagent (20 μL) in each well, as per manufacturer's instructions and incubated for a further 4 hours. Solubilization solution (100 μL) was added per well and the plates incubated overnight at 37° C. The plates were read in a spectrophotometer (scanning from 500-650 nm, signal peak at 570 nm). A representative result is illustrated in FIG. 36.
# [5] = tested on: HT-29 cells; test: cells; assay type: cell-based, human; conditions: Homo sapiens, HT-29; MTT, 24 hours; read-out: In vivo HT29 Cells (approximate IC50)
# Procedure: as §3, §4
# [6] = tested on: HT-29 cells; test: MTT cell viability assay, HT-29; assay type: cell-based, human; conditions: cell reads on: Active
# Procedure: Human cell cultures were initiated from frozen cell stocks (the gift of Dr J. Gavrilovic, UEA). […] Both human cell lines form adherent cultures and were maintained at 37° C. in T25 culture vessels as 10 mL cultures in CO2 Independent Media containing 10% foetal bovine serum (EU approved), 4 mM L-glutamine, penicillin/streptomycin (Invitrogen). […] Media was renewed every three days.
# After incubation with MTT and solubilization, the resulting coloured solution is quantified using a scanning spectrophotometer. […] Cell viability was then determined by addition of MTT reagent (20 μL) in each well, as per manufacturer's instructions and incubated for a further 4 hours. Solubilization solution (100 μL) was added per well and the plates incubated overnight at 37° C. The plates were read in a spectrophotometer (scanning from 500-650 nm, signal peak at 570 nm).
# [7] = tested on: Arabidopsis thaliana ecotype Columbia plants; test: Effects on A. thaliana seedlings and plants; assay type: in vivo; conditions: Table 5-C
# Procedure: The microcin derivatives were tested for efficacy in planta against Arabidopsis thaliana ecotype Columbia according to known methods (see Wall et al., 2004). Seeds were germinated on sterile media containing the appropriate peptide and the effects were observed over a three week period. […] In […] seeds, such as A. thaliana, during imbibition the quiescent seed rapidly resumes metabolic and respiratory activity. One of the first steps, as part of this process, is the initiation of mitochondrial DNA synthesis which requires DNA gyrase and which may explain the exquisite sensitivity of the germinating seeds to Peptides 1 and 2.
# The leaf tissue initially turned yellow, followed by rapid necrosis of the tissue (see FIG. 32). […] The high hydrophility of Peptide 1 may preferentially allow the compound to readily diffuse through the leaf cuticle and epidermis to the mesophyll and phloem below.
# The heterocyclic compounds were also spotted onto the leaves of 4 week old, tissue culture grown Arabidopsis thaliana ecotype Columbia plants (see FIG. 34, panels A-1). […] The browning and necrosis diffused through the full thickness of the leaf over the next 60 minutes (see FIG. 34, panel F) and spread towards the meristem (see FIG. 34, panels E, F, H). Complete necrosis of the meristem and newly emerged leaves, where organellar replication takes place, was complete within 24 hours (see FIG. 34, panel F).
# [8] = target: T1, Human topoisomerase IIα; test: Human Topoisomerase IIα decatenation assay; assay type: biochemical; set-up: purchased TopoGEN Inc. (Port Orange, Fla., USA); conditions: read-out: Topo IIα Human, D (decatenation reaction) IC50
# Procedure: as §1, §2
# T1 sequence (P11388 whole entry): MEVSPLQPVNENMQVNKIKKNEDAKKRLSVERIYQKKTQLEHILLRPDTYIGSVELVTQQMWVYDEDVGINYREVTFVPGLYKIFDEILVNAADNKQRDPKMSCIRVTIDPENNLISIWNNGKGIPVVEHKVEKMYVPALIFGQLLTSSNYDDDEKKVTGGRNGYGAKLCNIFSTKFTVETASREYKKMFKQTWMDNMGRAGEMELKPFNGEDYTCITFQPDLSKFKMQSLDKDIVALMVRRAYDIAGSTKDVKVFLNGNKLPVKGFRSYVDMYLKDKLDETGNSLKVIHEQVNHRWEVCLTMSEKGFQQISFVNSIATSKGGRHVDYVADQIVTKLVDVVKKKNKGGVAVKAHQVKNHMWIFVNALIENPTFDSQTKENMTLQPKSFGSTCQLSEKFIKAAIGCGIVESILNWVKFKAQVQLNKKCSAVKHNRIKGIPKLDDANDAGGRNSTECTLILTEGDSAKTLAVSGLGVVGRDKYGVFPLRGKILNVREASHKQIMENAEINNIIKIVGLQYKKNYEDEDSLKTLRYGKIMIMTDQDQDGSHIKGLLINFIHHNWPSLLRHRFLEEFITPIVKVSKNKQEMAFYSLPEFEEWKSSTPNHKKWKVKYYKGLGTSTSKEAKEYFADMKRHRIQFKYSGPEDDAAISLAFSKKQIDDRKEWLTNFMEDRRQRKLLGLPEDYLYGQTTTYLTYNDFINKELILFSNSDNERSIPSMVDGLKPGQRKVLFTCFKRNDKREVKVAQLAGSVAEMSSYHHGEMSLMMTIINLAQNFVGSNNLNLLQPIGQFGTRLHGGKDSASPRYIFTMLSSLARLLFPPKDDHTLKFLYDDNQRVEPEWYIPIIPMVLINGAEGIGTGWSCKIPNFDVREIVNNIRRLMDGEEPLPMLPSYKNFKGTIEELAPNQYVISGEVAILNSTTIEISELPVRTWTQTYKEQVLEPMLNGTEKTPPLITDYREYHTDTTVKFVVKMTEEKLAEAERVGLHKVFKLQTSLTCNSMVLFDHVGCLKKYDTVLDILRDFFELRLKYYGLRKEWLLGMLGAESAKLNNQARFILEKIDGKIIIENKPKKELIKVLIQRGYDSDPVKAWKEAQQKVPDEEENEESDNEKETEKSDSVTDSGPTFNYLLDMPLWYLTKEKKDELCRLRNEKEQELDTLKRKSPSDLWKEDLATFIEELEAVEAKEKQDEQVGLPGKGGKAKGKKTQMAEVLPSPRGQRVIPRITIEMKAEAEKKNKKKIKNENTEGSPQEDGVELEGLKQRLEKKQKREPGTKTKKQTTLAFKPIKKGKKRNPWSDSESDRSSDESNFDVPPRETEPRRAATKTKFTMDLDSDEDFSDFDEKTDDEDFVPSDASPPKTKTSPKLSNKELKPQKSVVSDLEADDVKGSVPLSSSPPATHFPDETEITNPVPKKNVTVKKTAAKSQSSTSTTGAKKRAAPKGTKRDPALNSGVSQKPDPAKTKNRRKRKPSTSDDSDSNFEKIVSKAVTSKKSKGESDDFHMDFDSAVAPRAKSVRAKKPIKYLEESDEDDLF
smiles,measurement,setting,value
CC(C)(C)OC(=O)NCc1nc(C(=O)O)co1 [#6],IC50,[1],> 250 µM
same,"Decatenation activity of eukaryotic topoisomerase IIα, sensitivity",[2],albeit weakly
same,IC50,[3],> 300 µM
same,IC50,[4],> 75 µM
same,IC50,[5],> 75 µM
same,In vivo HT29 Cells activity,[6],Not
same,"In vivo Plants, P (whole plants, expanded Arabidopsis leaves)",[7],P > 300 μM
same,IC50,[8],> 250 µM
